Measurements taken from patent US10494332B2, “Protein tyrosine phosphatases or SHP2 inhibitors and uses thereof” (Indiana University Research and Technology Corporation, priority 2015, dated 2019).
pIC50: −log10 of the molar value. Several values for one entry are separate records, joined by “and”; a condition that tells them apart may be missing. Equal entries are not always repeated. Where two headings read alike, the source gives them in different places.

How the values were obtained:
[1] = molecular target: T1, LYP (Homo sapiens, UniProt Q9Y2R2); test: PTP inhibition assay (pNPP); assay type: biochemical; conditions: pNPP at Km, pH 7.0, 25° C.
T1 sequence (Q9Y2R2 1-807): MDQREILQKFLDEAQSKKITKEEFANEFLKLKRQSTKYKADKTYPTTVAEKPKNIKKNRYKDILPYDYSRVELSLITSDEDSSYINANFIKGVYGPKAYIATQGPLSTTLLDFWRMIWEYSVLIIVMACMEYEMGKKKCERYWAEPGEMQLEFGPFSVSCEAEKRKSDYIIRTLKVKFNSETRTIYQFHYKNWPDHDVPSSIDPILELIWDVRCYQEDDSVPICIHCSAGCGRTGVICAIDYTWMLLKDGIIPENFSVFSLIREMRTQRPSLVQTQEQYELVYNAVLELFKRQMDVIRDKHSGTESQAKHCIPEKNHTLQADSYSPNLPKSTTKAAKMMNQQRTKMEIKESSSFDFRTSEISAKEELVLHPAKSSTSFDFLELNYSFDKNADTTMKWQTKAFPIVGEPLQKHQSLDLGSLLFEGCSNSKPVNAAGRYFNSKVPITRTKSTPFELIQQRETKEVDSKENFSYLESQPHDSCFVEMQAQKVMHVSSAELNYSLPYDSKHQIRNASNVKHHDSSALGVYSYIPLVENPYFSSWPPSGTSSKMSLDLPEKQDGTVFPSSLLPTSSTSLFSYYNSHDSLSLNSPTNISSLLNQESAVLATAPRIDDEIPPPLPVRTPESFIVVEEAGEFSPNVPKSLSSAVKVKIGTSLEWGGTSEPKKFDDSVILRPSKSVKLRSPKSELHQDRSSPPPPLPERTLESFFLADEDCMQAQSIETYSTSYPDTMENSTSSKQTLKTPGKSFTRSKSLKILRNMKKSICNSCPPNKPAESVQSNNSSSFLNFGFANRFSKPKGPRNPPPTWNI

[2] = molecular target: T2, STEP (Homo sapiens, UniProt P54829); test: PTP inhibition assay (pNPP); assay type: biochemical; conditions: pNPP at Km, pH 7.0, 25° C.
T2 sequence (P54829 1-565): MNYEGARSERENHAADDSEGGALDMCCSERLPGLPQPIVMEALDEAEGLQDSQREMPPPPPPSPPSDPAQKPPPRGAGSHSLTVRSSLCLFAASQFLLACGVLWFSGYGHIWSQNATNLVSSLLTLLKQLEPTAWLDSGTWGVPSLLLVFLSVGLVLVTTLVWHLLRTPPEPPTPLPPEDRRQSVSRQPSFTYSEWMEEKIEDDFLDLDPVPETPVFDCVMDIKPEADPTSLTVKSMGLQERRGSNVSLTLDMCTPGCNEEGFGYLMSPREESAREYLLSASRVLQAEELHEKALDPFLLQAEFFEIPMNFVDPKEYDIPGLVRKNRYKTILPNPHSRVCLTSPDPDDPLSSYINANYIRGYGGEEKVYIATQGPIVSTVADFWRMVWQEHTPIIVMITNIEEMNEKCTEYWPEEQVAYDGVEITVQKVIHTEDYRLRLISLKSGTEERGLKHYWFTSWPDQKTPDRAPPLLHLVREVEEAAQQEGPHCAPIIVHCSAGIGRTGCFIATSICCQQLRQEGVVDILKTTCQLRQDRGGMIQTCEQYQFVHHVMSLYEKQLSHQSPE

[3] = molecular target: T3, PEST (Homo sapiens, UniProt Q05209); test: PTP inhibition assay (pNPP); assay type: biochemical
T3 sequence (Q05209 1-780): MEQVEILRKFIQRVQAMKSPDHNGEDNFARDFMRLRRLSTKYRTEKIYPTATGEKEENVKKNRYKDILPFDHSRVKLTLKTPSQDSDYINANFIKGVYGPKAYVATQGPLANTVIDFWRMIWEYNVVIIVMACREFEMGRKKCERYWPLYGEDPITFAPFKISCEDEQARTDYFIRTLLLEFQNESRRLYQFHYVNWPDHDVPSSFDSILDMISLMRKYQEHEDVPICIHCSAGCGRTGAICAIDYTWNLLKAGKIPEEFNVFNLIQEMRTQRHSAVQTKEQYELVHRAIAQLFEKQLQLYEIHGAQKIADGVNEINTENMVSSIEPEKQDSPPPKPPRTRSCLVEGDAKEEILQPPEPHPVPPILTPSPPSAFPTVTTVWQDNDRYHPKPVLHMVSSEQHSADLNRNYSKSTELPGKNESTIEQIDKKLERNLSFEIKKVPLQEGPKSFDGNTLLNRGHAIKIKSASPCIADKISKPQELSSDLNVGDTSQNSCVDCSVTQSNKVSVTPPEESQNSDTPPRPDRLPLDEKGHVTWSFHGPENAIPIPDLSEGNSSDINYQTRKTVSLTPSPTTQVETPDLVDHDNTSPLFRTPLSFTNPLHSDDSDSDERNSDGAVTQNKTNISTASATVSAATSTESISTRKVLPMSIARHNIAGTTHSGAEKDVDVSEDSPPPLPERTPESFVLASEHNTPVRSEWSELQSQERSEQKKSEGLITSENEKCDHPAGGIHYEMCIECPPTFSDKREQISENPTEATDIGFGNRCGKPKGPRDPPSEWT

[4] = molecular target: T4, mPTPB (Mycobacterium tuberculosis, UniProt I6WXK4); test: biochemical; conditions: for pIC50: IC50 mPTPB; for IC50: Biochemical potency against target (Ic50, nM) mPTPB
T4 sequence (I6WXK4 1-276): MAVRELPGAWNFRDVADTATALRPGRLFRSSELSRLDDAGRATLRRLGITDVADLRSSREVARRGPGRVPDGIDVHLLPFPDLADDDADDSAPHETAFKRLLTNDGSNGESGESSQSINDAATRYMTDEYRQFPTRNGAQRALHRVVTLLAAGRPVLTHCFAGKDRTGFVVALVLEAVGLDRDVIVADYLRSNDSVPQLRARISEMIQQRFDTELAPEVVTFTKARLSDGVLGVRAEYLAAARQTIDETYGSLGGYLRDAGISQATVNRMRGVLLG

[5] = molecular target: YopH (Yersinia enterocolitica, UniProt P15273); test: biochemical
[6] = pNPP at Km, pH 7.0, 25° C., read-out: IC50 PEST

Chain of YopH (P15273 whole entry, looked up): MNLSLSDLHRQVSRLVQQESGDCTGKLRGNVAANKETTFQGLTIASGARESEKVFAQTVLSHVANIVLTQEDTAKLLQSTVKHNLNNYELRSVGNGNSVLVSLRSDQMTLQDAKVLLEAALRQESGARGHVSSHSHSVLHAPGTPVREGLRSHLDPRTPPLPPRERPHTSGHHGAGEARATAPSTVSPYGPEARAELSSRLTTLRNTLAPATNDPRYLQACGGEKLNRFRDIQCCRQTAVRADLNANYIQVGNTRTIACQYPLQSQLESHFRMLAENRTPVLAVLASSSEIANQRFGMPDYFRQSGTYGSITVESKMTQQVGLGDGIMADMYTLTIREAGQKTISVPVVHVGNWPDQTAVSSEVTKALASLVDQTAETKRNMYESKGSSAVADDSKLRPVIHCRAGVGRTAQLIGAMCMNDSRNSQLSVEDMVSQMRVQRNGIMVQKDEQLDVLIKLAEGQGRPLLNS

Compound | pIC50 [1] | pIC50 ([2]; read-out: IC50 STEP) | pIC50 [3, 6] | pIC50 [4] | pIC50 [5] | pIC50 ([2]; IC50 STEP) | pIC50 ([3]; IC50 PEST) | pIC50 ([3]; pH 7, read-out: IC50 PEST) | IC50 [4]
O=C(NCCNC(=O)C(c1ccccc1)S(=O)(=O)O)c1cccc(C(=O)c2ccccc2)c1 (centres unmarked) [Compound L319-02-A60] | < 3.70 | < 3.70 | < 3.70 |  |  |  |  |  | 
O=C(CS(=O)(=O)O)Nc1cnc2ccccc2c1 | < 4.00 | < 4.00 | < 4.00 | 4.26 | < 4.00 |  |  |  | 
O=C(Nc1nc2ccccc2s1)C(c1ccccc1)S(=O)(=O)O (centres unmarked) [Compound L319N15] | < 3.70 and 3.72 | < 3.70 | 4.36 | 6.94 | < 3.70 |  |  |  | 
O=C(Nc1ccc(N2CCOCC2)cc1)C(c1ccccc1)S(=O)(=O)O (centres unmarked) [Compound L319M68] | < 3.70 | < 3.70 | < 3.70 | 5.30 | < 3.70 |  |  |  | 
Cc1c(Br)cc(NC(=O)C(c2ccccc2)S(=O)(=O)O)cc1Br (centres unmarked) [Compound L319M34] |  |  |  | 6.70 to 7.30 and 7.26 | < 3.70 | < 3.70 | 4.37 | 4.14 | 
O=C(Nc1cccc(OCc2ccccc2)c1)C(=O)Nc1ccccc1NC(=O)C(c1ccccc1)S(=O)(=O)O (centres unmarked) [Compound L319-21-M52] | < 4.30 | < 4.30 | < 4.30 |  |  |  |  |  | 
O=C(Nc1cnc2ccccc2c1)C(c1ccccc1)S(=O)(=O)O (centres unmarked) [Compound L319M88] | < 3.70 | < 3.70 | < 3.70 | 6.55 | < 3.70 |  |  |  | 
O=C(C(c1ccccc1)S(=O)(=O)O)N1CCC(c2ccc(Cl)c(Cl)c2)CC1 (centres unmarked) [Compound L319N47] | 4.38 | < 3.70 | 4.38 |  | 3.80 |  |  |  | 9 nM
O=C(CS(=O)(=O)O)Nc1ccc2nc(C(F)(F)F)[nH]c2c1 | < 4.00 | < 4.00 | < 4.00 |  | < 4.00 |  |  |  | 
CCCCc1ccc(NC(=O)C(=O)Nc2ccccc2NC(=O)C(c2ccccc2)S(=O)(=O)O)cc1 (centres unmarked) [Compound L319-21-M06] | < 4.30 | < 4.30 | < 4.30 |  |  |  |  |  | 
O=C(CS(=O)(=O)O)Nc1nc2ccc([N+](=O)[O-])cc2s1 [Compound L335N15-07] | < 4.00 | < 4.00 | < 4.00 |  | < 4.00 |  |  |  | 
O=C(Nc1ccc(-c2ccccc2)cc1)C(c1ccccc1)S(=O)(=O)O (centres unmarked) [Compound L319N08] | < 3.70 |  |  |  |  | < 4.00 | 4.22 |  | 
O=C(NCc1ccc(NC(=O)C(c2ccccc2)S(=O)(=O)O)cc1)c1ccccc1-c1ccc(C(F)(F)F)cc1 (centres unmarked) [Compound L319-05-A64] | 4.21 | < 4.00 | 3.80 |  |  |  |  |  | 
O=C(Nc1ccc2nc(C(F)(F)F)[nH]c2c1)C(c1ccccc1)S(=O)(=O)O (centres unmarked) [Compound L319M54] | < 3.70 | < 3.70 | < 3.70 | 7.11 | < 3.70 |  |  |  | 
Cc1c(Br)cc(NC(=O)CS(=O)(=O)O)cc1Br | < 4.00 |  |  | 5.51 | < 4.00 | < 4.00 |  |  | > 3200 nM
O=C(Nc1cccc(OCc2ccccc2)c1)C(c1ccccc1)S(=O)(=O)O (centres unmarked) [Compound L319M52] | < 3.70 | < 3.70 | 4.11 | 6.97 | < 3.70 |  |  |  | 
O=C(Nc1ccc(OCc2ccccc2)c(Cl)c1)C(c1ccccc1)S(=O)(=O)O (centres unmarked) [Compound L319M50] | < 3.70 | < 3.70 | 4.16 |  |  |  |  |  | 
O=C(C(c1ccccc1)S(=O)(=O)O)N1CCC(Cc2ccccc2)CC1 (centres unmarked) [Compound L319N46] | < 3.70 | < 3.70 | < 3.70 |  | < 3.70 |  |  |  | 60 nM
O=C(C(c1ccccc1)S(=O)(=O)O)N1CCCC2CCCCC21 (centres unmarked) [Compound L319N53] | < 3.70 | < 3.70 | < 3.70 |  | < 3.70 |  |  |  | 20 nM
O=C(CS(=O)(=O)O)Nc1nc2ccccc2s1 [Compound L335N15] | < 4.00 | < 4.00 | < 4.00 | 5.02 | < 4.00 |  |  |  | 
